Source: US10064832B2, “Kartogenin-conjugated chitosan particles with improved sustained release property and biocombatibility, and use thereof” (priority 2014, dated 2018)

System: osteoarthritis model rats
Assay: Osteoarthritis regeneration after intra-articular injection in osteoarthritis animal model
Type: in vivo
Details: injected into knee joints at 6 and 9 weeks after surgery, euthanized at 14 weeks
Method: The rats were euthanized at 14 weeks, and joint tissues were separated and fixed in 10% paraformaldehyde, and then treated with 6% nitric acid for to decalcification. The tissues were embedded in a Tissue-Tek O.C.T. compound (Sakura Finetek Japan Co., Ltd.), sectioned to 10 μm and attached to a slide glass, and thereafter, staining with Safranin-O/fast green and immunofluorescence of collagen type II (COL2A1) and aggrecan were performed.

O=C(O)c1ccccc1C(=O)Nc1ccc(-c2ccccc2)cc1 [kartogenin]
COL2 protein (immunofluorescent staining): noticeable reduction
aggrecan protein (immunofluorescent staining): noticeable reduction
cartilage histology (Safranin-O/fast green): weak vertical matrix cracks in a deep area of cartilage and loss and surface peeling of cartilage
